This passage reports IC50 results from patent publication US9994587B2, “HIV protease inhibitors” (priority 2014, dated 2018).

The assay concerns the target T1, wildtype HIV-1 protease (Human immunodeficiency virus type 1 group M subtype B, UniProt P04585).
T1 construct: preincubated with the HIV-1 protease (wild type) enzyme in assay buffer; made in house; host or cells: Escherichia coli
Nature of the assay: Assay for inhibition of microbial expressed HIV protease (Pepcleav). Conditions: wild type HIV-1 protease 20 pM, peptide substrate 400 micromolar, pH 5.5; mean of at least two independent experiments. The assay is classed as biochemical. As for the experimental part:
Assay for Inhibition of Microbial Expressed HIV Protease (“Pepcleav”)
Studies of the inhibition of the wildtype HIV-1 protease (which was expressed in Escherichia coli) were carried out with a peptide substrate [Val-Ser-Gln-Asn-(βnaphtyl)Ala-Pro-Ile-Val (SEQ ID NO 1)]. The inhibitor was first preincubated with the HIV-1 protease (wild type) enzyme in assay buffer (50 mM sodium acetate, pH 5.5, 100 mM NaCl, and 0.1% BSA) for 30 minutes at room temperature. Substrate was added to 400 micromolar in a total volume of 20 microliters containing 20 picomolar HIV-1 protease (final) and the reaction is incubated for 1 hour at 30° C. The reaction was quenched with the addition of formic acid and indinavir to 0.012% and 150 nM final concentrations, respectively. Product formation was determined after separation of product and substrate on a Zorbax Eclipse XDB-C18 column connected to an API 4000 mass spectrometer (Applied Biosystems) with multiple reaction monitoring (transitions were 644.5/428.9 and 615.4/422.2 (M1/M3) for product and indinavir respectively). The extent of inhibition of the reaction was determined from the peak area of the products.
For orientation: IC50 means the point on the concentration scale where inhibition reaches its midpoint. Regarding `COC(=O)N[C@H](C(=O)NCCCC1CNC[C@@H](CSc2ccc(Cl)cc2C)O1)C(c1ccccc1)c1ccccc1` (stereo partly drawn) [Example 3, methyl N-[(1S)-1-benzhydryl-2-[3-[(6S)-6-[(4-chloro-2-methyl-phenyl)sulfanylmethyl]morpholin-2-yl]propylamino]-2-oxo-ethyl]carbamate], it took 420 nM to reach half-maximal inhibition (IC50).

As to `COC(=O)N[C@H](C(=O)Nc1ccccc1CC[C@@H]1CNC[C@@H](/C=C/c2ccc(Cl)cc2)O1)C(c1ccccc1)c1ccccc1` [Example 60, N-[2-(2-{(2R,6R)-6-[(E)-2-(4-chlorophenyl)ethenyl]morpholin-2-yl}ethyl)phenyl]-Nα-(methoxycarbonyl)-β-phenyl-L-phenylalaniamide], half-maximal inhibition (IC50) required 19 nM.

In turn, `COC(=O)N[C@H](C(=O)Nc1nccnc1CC[C@@H]1CNC[C@@H](COc2ccc(C#N)cc2)O1)C(c1ccccc1)c1ccccc1` [Example 84, methyl N-[(1S)-1-benzhydryl-2-[[3-[2-[(2R,6S)-6-[(4-cyanophenoxy)methyl]morpholin-2-yl]ethyl]pyrazin-2-yl]amino]-2-oxo-ethyl]carbamate] came in with a half-maximal inhibitory concentration (IC50) of 430 nM.

In turn, `N[C@H](C(=O)Nc1cncc(F)c1CC[C@@H]1CNC[C@@H](COC(=O)N2CCOCC2)O1)C(c1ccc(F)cc1)c1ccc(F)cc1` [Example 105, {(2S,6R)-6-[2-(3-fluoro-5-{[4-fluoro-β-(4-fluorophenyl)-L-phenylalanyl]amino}pyridin-4-yl)ethyl]morpholin-2-yl}methyl morpholine-4-carboxylate] showed an IC50 of 29 nM.

For the compound `COC(=O)N[C@H](C(=O)Nc1ccccc1CC[C@@H]1CNC[C@@H](CCc2ccc(C#N)cc2)O1)C(c1ccccc1)c1ccccc1` [Example 63, N-[2-(2-{(2R,6R)-6-[2-(4-cyanophenyl)ethyl]morpholin-2-yl}ethyl)phenyl]-N-α-(methoxycarbonyl)-β-phenyl-L-phenylalaninamide], the midpoint of inhibition, the IC50, lay at 8.8 nM.

Compound `COC(=O)N[C@H](C(=O)Nc1ccccc1CC[C@@H]1CNC[C@@H](CSc2cccc(Br)c2)O1)C(c1ccccc1)c1ccccc1` [Example 20, methyl N-[(1S)-1-benzhydryl-2-[[2-[2-[(2R,6S)-6-[(3-bromophenyl)sulfanylmethyl]morpholin-2-yl]ethyl]phenyl]amino]-2-oxo-ethyl]carbamate] registered an IC50 of 2.9 nM.

Compound `N[C@@H](C(=O)Nc1cncc(F)c1CC[C@@H]1CNC[C@@H](CSc2ccc(Cl)cc2)O1)C(c1ccc(F)cc1)c1ccc(F)cc1` [Example 122, N-(4-{2-[(2R,6S)-6-{[(4-chlorophenyl)sulfanyl]methyl}morpholin-2-yl]ethyl}-5-fluoropyridin-3-yl)-4-fluoro-β-(4-fluorophenyl)-D-phenylalaninamide] yielded an IC50 of 9 nM.

`COC(=O)N[C@H](C(=O)Nc1ccccc1CC[C@@H]1CNC[C@@H](CSc2ccc(Cl)cc2)O1)[C@@H](c1ccccc1)c1ccnc2ccccc12` [Example 68, methyl[(2S,3S)-1-[(2-{2-[(2R,6S)-6-{[(4-chlorophenyl)sulfanyl]methyl}morpholin-2-yl]ethyl}phenyl)amino]-1-oxo-3-phenyl-3-(quinolin-4-yl)propan-2-yl]carbamate] displayed an IC50 of 0.03 nM.

With `COC(=O)N[C@H](C(=O)Nc1ccccc1CC[C@@H]1CNC[C@@H](COc2cccc3nn[nH]c23)O1)C(c1ccccc1)c1ccccc1` [Example 40, N-[2-(2-{(2R,6S)-6-[(1H-benzotriazol-7-yloxy)methyl]morpholin-2-yl}ethyl)phenyl]-Na-(methoxycarbonyl)-b-phenyl-L-phenylalaninamide], half-maximal inhibition (IC50) required 68 nM.

Compound `N[C@H](C(=O)Nc1cccc(F)c1CC[C@@H]1CNC[C@@H](CSc2ccc(Cl)cc2)O1)C(c1ccc(F)cc1)c1ccc(F)cc1` [Example 121, N-(2-{2-[(2R,6S)-6-{[(4-chlorophenyl)sulfanyl]methyl}morpholin-2-yl]ethyl}-3-fluorophenyl)-4-fluoro-β-(4-fluorophenyl)-L-phenylalaninamide] registered an IC50 of 5.2 nM.

`COC(=O)N[C@H](C(=O)Nc1ccccc1CC[C@@H]1CNC[C@@H](COc2cccnc2C)O1)C(c1ccccc1)c1ccccc1` [Example 50, N-α-(methoxycarbonyl)-N-(2-{2-[(2R,6S)-6-{[(2-methylpyridin-3-yl)oxy]methyl}morpholin-2-yl]ethyl}phenyl)-β-phenyl-L-phenylalaninamide] gave an IC50 of 130 nM.

In turn, `COC(=O)N[C@H](C(=O)Nc1ccccc1OC[C@@H]1CNC[C@@H](CSc2ccc(Cl)cc2)O1)C(c1ccccc1)c1ccccc1` [Example 58, methyl N-[(1S)-1-benzhydryl-2-[[2-[[(2S,6S)-6-[(4-chlorophenyl)sulfanylmethyl]morpholin-2-yl]methoxy]phenyl]amino]-2-oxo-ethyl]carbamate] had an IC50 of 8.1 nM.

`COC(=O)N[C@H](C(=O)Nc1ccccc1CC[C@@H]1CNC[C@@H](COc2ccc(C#N)cc2)O1)C(c1ccccc1)c1ccccc1` [Example 17, methyl N-[(1S)-1-benzhydryl-2-[[2-[2-[(2R,6S)-6-[(4-cyanophenoxy)methyl]morpholin-2-yl]ethyl]phenyl]amino]-2-oxo-ethyl]carbamate] registered an IC50 of 21 nM.

In turn, `COC(=O)N[C@H](C(=O)Nc1ccccc1CC[C@@H]1CNC[C@@H](COc2ccc3cn[nH]c3c2)O1)C(c1ccccc1)c1ccccc1` [Example 45, N-[2-(2-{(2R,6S)-6-[(1H-indazol-6-yloxy)methyl]morpholin-2-yl}ethyl)phenyl]-Nα-(methoxycarbonyl)-β-phenyl-L-phenylalaninamide] displayed an IC50 of 11 nM.

Regarding `COC(=O)N[C@H](C(=O)Nc1ccccc1CC[C@@H]1CNC[C@@H](CSc2ccc(C#N)cc2)O1)C(c1ccccc1)c1ccccc1` [Example 22, methyl N-[(1S)-1-benzhydryl-2-[[2-[2-[(2R,6S)-6-[(4-cyanophenyl)sulfanylmethyl]morpholin-2-yl]ethyl]phenyl]amino]-2-oxo-ethyl]carbamate], the IC50 worked out at 1.1 nM.

For the compound `COC(=O)N[C@H](C(=O)Nc1ccccc1CC[C@@H]1CNC[C@@H](c2nc3cc(C)c(C)cc3[nH]2)O1)C(c1ccccc1)c1ccccc1` [Example 112, N-(2-{2-[(2R,6S)-6-(5,6-dimethyl-1H-benzimidazol-2-yl)morpholin-2-yl]ethyl}phenyl)-Nα-(methoxycarbonyl)-β-phenyl-L-phenylalaninamide], the IC50 was found to be 850 nM.

`COC(=O)N[C@H](C(=O)Nc1ccccc1CC[C@@H]1CNC[C@@H](COc2ccc(S(C)(=O)=O)cc2)O1)C(c1ccccc1)c1ccccc1` [Example 16, methyl N-[(1S)-1-benzhydryl-2-[[2-[2-[(2R,6S)-6-[(4-methylsulfonylphenoxy)methyl]morpholin-2-yl]ethyl]phenyl]amino]-2-oxo-ethyl]carbamate] returned an IC50 of 19 nM.

On to `COC(=O)N[C@H](C(=O)Nc1ccccc1CC[C@@H]1CNC[C@@H](COc2ccc(C(F)(F)F)cc2)O1)C(c1ccccc1)c1ccccc1` [Example 44, N-α-(methoxycarbonyl)-β-phenyl-N-(2-{2-[(2R,6S)-6-{[4-(trifluoromethyl)phenoxy]methyl}morpholin-2-yl]ethyl}phenyl)-L-phenylalaninamide], for which the IC50 stood at 14 nM.

For `COC(=O)N[C@H](C(=O)Nc1ccccc1CC[C@@H]1CNC[C@@H](COc2ccc(F)cc2)O1)C(c1ccccc1)c1ccccc1` [Example 46, N-[2-(2-{(2R,6S)-6-[(4-fluorophenoxy)methyl]morpholin-2-yl}ethyl)phenyl]-Nα-(methoxycarbonyl)-β-phenyl-L-phenylalaninamide], half-maximal inhibition (IC50) was put at 23 nM.

`COC(=O)N[C@H](C(=O)Nc1ccccc1CC[C@@H]1CNC[C@@H](CSc2nnc(Cc3csc(C)n3)o2)O1)C(c1ccccc1)c1ccccc1` [Example 32, methyl N-[(1S)-1-benzhydryl-2-[[2-[2-[(2R,6S)-6-[[5-[(2-methylthiazol-4-yl)methyl]-1,3,4-oxadiazol-2-yl]sulfanylmethyl]morpholin-2-yl]ethyl]phenyl]amino]-2-oxo-ethyl]carbamate] displayed an IC50 of 8 nM.

`COC(=O)N[C@H](C(=O)Nc1ccccc1CC[C@@H]1CNC[C@@H](COc2ccc(-n3cncn3)cc2)O1)C(c1ccccc1)c1ccccc1` [Example 15, methyl N-[(1S)-1-benzhydryl-2-oxo-2-[[2-[2-[(2R,6S)-6-[[4-(1,2,4-triazol-1-yl)phenoxy]methyl]morpholin-2-yl]ethyl]phenyl]amino]ethyl] carbamate] returned an IC50 of 12 nM.

`COC(=O)N[C@H](C(=O)Nc1ccccc1CC[C@@H]1CNC[C@@H](COc2ccc(-c3ccccc3)cc2)O1)C(c1ccccc1)c1ccccc1` [Example 11, methyl N-[(1S)-1-benzhydryl-2-oxo-2-[[2-[2-[(2R,6S)-6-[(4-phenylphenoxy)methyl]morpholin-2-yl]ethyl]phenyl]amino]ethyl] carbamate]: the IC50 was 6.6 nM.

Take `COC(=O)N[C@H](C(=O)Nc1ccccc1CC[C@@H]1CNC[C@@H](COc2ccc(Br)cc2N)O1)C(c1ccccc1)c1ccccc1` [Example 13, methyl N-[(1S)-1-[[2-[2-[(2R,6S)-6-[(2-amino-4-bromo-phenoxy)methyl]morpholin-2-yl]ethyl]phenyl]carbamoyl]-2,2-diphenyl-ethyl]carbamate]: the IC50 was 21 nM.
